Assay results as given in publication PMC12723449, “From Pharmacophore to Warhead: NAD^+‐Targeting Triazoles as Mechanism‐Based Sirtuin Inhibitors” (Angewandte Chemie (International Ed. in English), 2025).
Read-outs that look alike come from different tables or passages of the source.

Biological target: T1, NanoLuc–SIRT2 fusion protein in HEK293T cells (Homo sapiens, UniProt Q8IXJ6)
T1 construct: transfected HEK293T cells expressing the NanoLuc-tagged SIRT250-356 fusion protein were used instead of transient; expressed in transfected cells; host or cells: HEK293T (stably transfected)
T1 sequence (Q8IXJ6 50-356 limits assumed): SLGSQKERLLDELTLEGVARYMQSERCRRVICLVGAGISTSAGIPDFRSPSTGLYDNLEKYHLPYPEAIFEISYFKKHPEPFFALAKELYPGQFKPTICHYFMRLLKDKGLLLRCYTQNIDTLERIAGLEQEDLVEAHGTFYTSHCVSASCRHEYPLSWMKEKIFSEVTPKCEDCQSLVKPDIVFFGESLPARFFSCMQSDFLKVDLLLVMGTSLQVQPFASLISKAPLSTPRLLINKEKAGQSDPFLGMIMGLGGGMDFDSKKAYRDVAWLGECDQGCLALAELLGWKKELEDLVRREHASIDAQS
Test: NanoBRET cellular target engagement assay
Type: cell-based
Settings: for Ki: read-out: NanoBRET K i (Cheng–Prusoff)
Procedure: The NanoBRET target engagement assay was performed as previously described[2] with the modification that stably transfected HEK293T cells expressing the NanoLuc-tagged SIRT250-356 fusion protein were used instead of transient transfection. Briefly, HEK293T-NLuc- SIRT250-356 cells were cultured under standard conditions (37 °C, 5% CO2) in DMEM supplemented with 10% fetal bovine serum, 2 mM glutamine, and 300 µg/mL hygromycin as a selection marker. For the assay, cells were trypsinized, resuspended in Opti-MEM® reduced serum medium, and adjusted to a concentration of 2 × 10^5 cells per mL. […]
µM was used. Serially diluted inhibitor and tracer were added to the cell suspension, and 100 μL were seeded into 96-well white, sterile, nonbinding surface plates. To evaluate the cellular permeability of LTDi-1 (6), the non-ionic detergent digitonin (50 µg/ml) was added. Plates were incubated at 37 °C with 5% CO2 for 2 h. For BRET measurements, NanoBRET NanoGlo Substrate (Promega cat. #N1571) was added to the wells according to the […]
All measurements were performed using the 2102 EnVisionTM Multilabel Reader (PerkinElmer), equipped with a 460 nm filter (donor) and a 615 nm filter (acceptor). The BRET ratio was calculated as the ratio of acceptor to donor signal, and data were normalized to vehicle-treated controls. Apparent intracellular binding affinities (EC50 values) were determined by fitting dose-response curves using nonlinear regression analysis in GraphPad Prism. […]

[1] = 2 µM tracer, co-treatment with digitonin

Row | EC50 [1] [nM] | Ki [1] [nM] | EC50 (2 µM tracer, without digitonin) [nM] | Ki (2 µM tracer, without digitonin) [nM] | EC50 (without digitonin) [nM] | Structure (SMILES)
1 | 160 ± 20 | 18 ± 2 | 340 ± 90 | 38 ± 10 |  | CCCCCCCCCCCCc1cn(CCCC[C@H](NC(=O)[C@H](CCCCN)NC(=O)[C@@H]2CCCN2C(=O)[C@H](CC(C)C)NC(=O)[C@H](C)NC(=O)[C@H](CCC(=O)O)NC(C)=O)C(=O)N[C@H](C(=O)NCC(=O)NCC(N)=O)[C@@H](C)O)nn1 [Compound 6]
2 |  |  |  |  | 2700 ± 100 | COCCn1cc(COc2cccc(Cc3cnc(NC(=O)CSc4nc(C)cc(C)n4)s3)c2)nn1 [Compound 1, reference compound]
